Literature values as cited in patent US20050048573A1, “PDE5A crystal structure and uses” (Plexxikon, Inc., priority 2003, published 2005).

Biological target: PDE5 (Bos taurus, UniProt Q28156)
Conditions: allosteric sites; read-out: KD of PDE5 for binding cGMP in the allosteric sites

Kd: ~200 nM
Compound: Nc1nc2c(ncn2[C@@H]2O[C@@H]3COP(=O)(O)O[C@H]3[C@H]2O)c(=O)[nH]1 [cGMP]
